Test results from patent US20250090875A9, “IMMUNOSTIMULATORY COMPOUNDS AND CONJUGATES” (Seagen Inc., priority 2021, published 2025).

Legend:
CT26 tumors = type: in vivo; details: targeted ADC, intraperitoneal, every 7 days, 3 doses
Excerpt: This example covers in vivo assessments of anti-tumor activity of ADCs with TLR7/8 agonists. An in vivo syngeneic system was used to assess the ability of the ADCs having TLR ⅞ agonists as the payload to induce immune responses and drive an anti-tumor immune response using a subcutaneous, heterotopic mouse colon carcinoma model (a CT26 system). Female Balb/c mice were implanted with 1×10^5 CT26 cells sub-cutaneously in the flank on day 0. When mean tumor size of 100 mm^3 (measured using the formula: Volume (mm^3)=0.5*Length*Width^2 where length is the longer dimension) was reached, the mice were randomized into treatment groups of 6 mice per group. Animals were then treated intraperitoneally with the indicated treatment every 7 days, for 3 doses total. Stock concentrations of the ADCs were diluted to the appropriate concentration and injected into animals in 100 μL volumes. Tumor length and width and mouse weights were measured throughout the study and tumor volume was calculated using the formula above. Animals were followed until tumor volume reached 1000 mm^3, when animals were then euthanized.

MC38 tumors = assay: MC38 colon tumor model in C57BL/6 mice; type: in vivo, mouse; details: ADC, carboxylic acid vs methyl ester payload, FIG. 12
Description: The activity of several conjugated TLR7/8 molecules in both methyl ester and carboxylic acid forms were also assessed in another colon tumor model, MC38. Results of this analysis are summarized in FIG. 12, which the top panel summarizing tumor volume and the bottom panel providing percent survival across 9 treatment groups. […] However, the increase in anti-tumor activity of the carboxylic acid version of the ADC was much more pronounced in this model for the S18a (methyl ester) or S18b (carboxylic acid) TLR7/8 agonist.
To assess if the small molecule and conjugated agonist are specific for the toll like 7 and/or 8 receptors, various small molecules and ADCs were tested on TLR7 receptor knockout animals. As TLR8 is normally nonfunctional in mice, in TLR7−/− mice there is a total loss of ability to respond to compounds that work through these receptors. To assess whether compounds are TLR7/8 specific, MC38 tumors were implanted into either wild type C57B1/6 mice or cognate TLR7−/− mice. When tumors reached ˜50 mm3 mice animals were treated q7dx3 with vehicle (PBS), 1 mg/kg of the free small molecule S18a, the isotype/non-targeted ADC with cmpd 9 or with an immune cell targeted version of the cmpd 9 IDC.

primary human PBMCs = assay: Cytokine induction in primary human PBMCs by small molecule TLR7/8 agonists (Luminex); type: cell-based; details: free drug; for IFNα, IL1β, MIP1β, TNFα induction, C7 carboxylic acid vs parent C7 methyl ester: FIG. 3; for MIP1β and TNFα responses: FIG. 4, compared with Resiquimod or methyl ester counterpart
Description: This example covers dose dependent human immune cell activation by small molecule TLR7/8 agonists. Primary human PBMCs were isolated from peripheral whole blood from human donors and were subjected to treatment with increasing concentrations of the agonists diluted in PBS. Cell culture supernatants were harvested 24 h after treatment and analyzed for induction of cytokines via multiplex ELISAs (Luminex).
Several small molecule TLR7/8 agonists were assessed for their ability to activate human immune cells in a dose dependent manner. Primary human PBMCs were isolated from peripheral whole blood from human donors and were subjected to treatment with increasing concentrations of the agonists diluted in PBS. 24 h after treatment cell culture supernatants were harvested and analyzed for induction of cytokines via multiplex ELISAs (Luminex).

human immune cells = assay: Cytokine induction in human immune cells by TLR7/8 agonist-antibody conjugates (Luminex); type: cell-based; details: ADC with immune-targeting antibody, FIGS. 6, 7, 8
Description: Cells were stimulated with the various TLR7/8 agonist-antibody conjugates at different concentrations, and resulting supernatants were harvested and analyzed using a multiplex analyte kit (Luminex).
Immune cells were treated with 5 μg/mL of an immune-targeting antibody, TLR agonist compounds, and antibody conjugated with different TLR agonist compounds (to thereby form ADCs with average drug:antibody ratios of about 8). FIG. 6 summarizes MIP1β (left panel) and TNFα (right panel) responses generated by untreated immune cells, a TLR agonist coupled to a non-targeting antibody (‘Non-targeted’), and TLR agonist compounds conjugated with immune-targeted antibodies (‘targeted cmpd’ 1-7). […] Targeted compounds 2, 4, 5, and 7 correspond to C7 carboxymethylated imidazoquinoline compounds coupled to immunostimulatory antibodies by cleavable linkers. Targeted compounds 3 and 6 correspond to C7 carboxylated imidazoquinoline compounds coupled to immunostimulatory antibodies by cleavable linkers. FIG. 7 provides dose-dependent IL12p40 (left panel) and IL1β (right panel) responses generated with non-targeted (i.e., coupled to an isotype antibody) and immune targeting antibody conjugated compounds, with ‘cmpd 9’ corresponding to a C7 carboxylated imidazoquinoline compound and ‘cmpo10’ corresponding to its C7 carboxymethyl analogue. FIG. 8 provides dose-dependent interleukin 6 (IL6, left panel) and TNFα (right panel) responses with ADCs comprising immune cell targeting antibodies coupled to either C7 carboxylated (cmpd 3, 8, 9) or C7 carboxymethylated (cmpd 4, 7, 10) imidazoquinoline compounds.
In order to ascertain whether the difference in activity of the N1 vs. C4 linked conjugates seen in the Renca model was due to variable potency, a dose range experiment was performed. The N1 and C4 linked targeted (ADC) and non-targeted conjugates were administered in a wide dose range (0.001 to 10 μg/mL) to exogenously derived human immune cells. […] Supernatants were harvested and analyzed using a multiplex analyte kit (Luminex).

Renca tumors = assay: Renca kidney carcinoma model in Balb/c mice; type: in vivo, mouse; details: ADC, q7dx3 from ~100 mm^3, FIG. 14
Description: The difference in anti-tumor activity of the S18a and S18b conjugates was also assessed in the Renca kidney model. In this model, mice bearing Renca tumors were treated q7dx3 when tumors reached ˜100 mm^3 as indicated, and followed for mean group tumor growth (FIG. 14, top) and survival (FIG. 14, bottom) over time.
This example covers cancer treatment with EphA2 targeted TLR agonists. […] Balb/c mice were implanted with Renca tumor cells and when cells reached 100 mm^3 they were treated Q7dx3 treatments with 2.4 mg/kg of the indicated IDC, either non targeting isotype or an EphA2 targeting mAb.

[1] = SEC analysis of ADC aggregation (high molecular weight species) in plasma; type: physicochemical; details: ADC incubated with human or mouse plasma, FIG. 9
Description: Method I: Size-exclusion chromatography (SEC) was performed with a Waters ACQUITY UPLC system and an Acquity UPLC Protein BEH SEC Column, (200 Å, 1.7 μm, 4.6×150 mm, PN: 186005225). The mobile phase used was 7.5% isopropanol in 92.5% aqueous (25 mM sodium phosphate, 350 mM NaCl, pH 6.8), v/v. Elution was performed isocratically at a flow rate of 0.4 mL/min at ambient temperature.
To determine if any of these differences in activity potentially resulted from increases in aggregation as a subsequent result of changes in charge, SEC analysis was performed. ADCs containing either S18a (methyl ester) or S18b (carboxylic acid) were incubated with both human or mouse plasma and assessed for the formation of high molecular weight species (HMW) over time.

| Structure (SMILES) | tumor growth delay and survival (CT26 tumors) | tumor growth delay and survival (MC38 tumors) | IFNα, IL1β, MIP1β, TNFα induction, C7 carboxylic acid vs parent C7 methyl ester (primary human PBMCs) | MIP1β and TNFα responses (primary human PBMCs) | potency at activating immune cells vs methyl ester analogues (human immune cells) | tumor growth and survival (Renca tumors) | aggregation (formation of high molecular weight species over time) [1] |
| --- | --- | --- | --- | --- | --- | --- | --- |
| CCCCc1nc2c(N)nc3cc(C(=O)O)ccc3c2n1Cc1ccc(CNC(=O)OCc2ccc(O[C@H]3O[C@H](CO)[C@@H](O)[C@H](O)[C@@H]3O)c(NC(=O)CCNC(=O)[C@H](CCCCNC(=O)CCOCCOCCOCCOCCOCCOCCOCCOCCOCCOCCOCCOC)NC(=O)CCN3C(=O)C=CC3=O)c2)cc1 [Compound 3, 4-amino-2-butyl-1-(4-(((((3-((S)-44-(3-(2,5-dioxo-2,5-dihydro-1H-pyrrol-1-yl)propanamido)-38,45-dioxo-2,5,8,11,14,17,20,23,26,29,32,35-dodecaoxa-39,46-diazanonatetracontan-49-amido)-4-(((2R,3S,4S,5S,6R)-3,4,5-trihydroxy-6-(hydroxymethyl)tetrahydro-2H-pyran-2-yl)oxy)benzyl)oxy)carbonyl)amino)methyl)benzyl)-1H-imidazo[4,5-c]quinoline-7-carboxylic acid] | profound tumor growth delay | slight increased survival advantage |  |  |  |  |  |
| CCCCc1nc2c(N)nc3cc(C(=O)O)ccc3c2n1Cc1ccc(CN)cc1 [S8b, 4-amino-1-(4-(aminomethyl)benzyl)-2-butyl-1H-imidazo[4,5-c]quinoline-7-carboxylic acid] |  |  | markedly lower potency and activity than its corresponding parent methyl ester compound | lower activities than their methyl ester counterparts | just as, if not more potent at activating immune cells than their methyl ester analogues |  |  |
| CCCCc1nc2c(N)nc3cc(C(=O)O)ccc3c2n1CCN [S11b] |  |  | markedly lower potency and activity than its corresponding parent methyl ester compound | lower activities than their methyl ester counterparts | just as, if not more potent at activating immune cells than their methyl ester analogues |  |  |
| CCCCc1nc2c(N)nc3cc(C(=O)O)ccc3c2n1Cc1ccc(CN(C)C)cc1 [S18b] |  | distinct tumor growth delay and overall survival benefit |  |  | just as, if not more potent at activating immune cells than their methyl ester analogues | very good tumor growth delay and superior overall survival advantage | no significant difference in the amounts of aggregation |
